Entries after “also recorded” stand apart in the source; their conditions may differ. Read-outs that look alike come from different tables or passages of the source.
Experiments:
[1] = system: BCR-ABL-1+ ITGA6fl/fl cells; assay: cells; details: Mus musculus, 72 h
Protocol: Viability of CreER^T2 and EmptyER^T2 ITGA6^f/f BCR-ABL1^+ CreER^T2 and EmptyER^T2 cells were plated onto tissue culture plates (no further ligand coated) and treated with Tamoxifen (1.5 μM) and Nilotinib (0.02 μM or 0.2 μM) for 1 to 3 days. Cell viability was determined by trypan blue exclusion. Y axis indicates cell viability relative to initial.
Bone marrow cells from ITGA6fl/fl mice (Georges-Labouesse et al.) mice were harvested and retrovirally transformed by BCR-ABL1 (Pear et al.) in the presence of 10 ng IL7 (Peprotech) in Retronectin-(Takara) coated plates. All BCR-ABL1-transformed ALL cells derived from bone marrow of mice were maintained in Iscove's modified Dulbecco's medium (IMDM) with GlutaMAX containing 20% fetal bovine serum (Atlanta Biologica), 100 IU/ml penicillin, 100 μg/ml streptomycin (Invitrogen), and 50 μM 2-mercaptoethanol (Sigma-Aldrich) at 37° C. in a humidified incubator with 5% CO2. After cytokine-independent proliferation, BCR-ABL1 transformed ITGA6fl/fl cells were transduced retrovirally with EmptyERT2 or CreERT2. […] After 1 μg/ml puromycin selection, VLA6 deletion was induced in vitro by addition of 1.0 μM tamoxifen (Sigma-Aldrich). […]

[2] = system: ITGA6fl/fl BCR/ABL1+ pre-B ALL cells; assay: In vivo model of BCR-ABL1-transformed ITGA6fl/fl ALL in NOD/SCID mice, survival with Nilotinib; parameters: species or system mouse
Protocol: A, Bioluminescence imaging was performed at indicated days post-ALL cells injection. […] C, D ITGA6 deletion was confirmed by FACS in BM cells of mice sacrificed at time of death of leukemia. E, Residual leukemia cells were determined in spleen and bone marrow by RT-PCR and F, PCR in the groups EmptyER^T2+Nilotinib and CreER^T2+Nilotinib.
Bone marrow cells from ITGA6fl/fl mice (Georges-Labouesse et al.) mice were harvested and retrovirally transformed by BCR-ABL1 (Pear et al.) in the presence of 10 ng IL7 (Peprotech) in Retronectin-(Takara) coated plates. All BCR-ABL1-transformed ALL cells derived from bone marrow of mice were maintained in Iscove's modified Dulbecco's medium (IMDM) with GlutaMAX containing 20% fetal bovine serum (Atlanta Biologica), 100 IU/ml penicillin, 100 μg/ml streptomycin (Invitrogen), and 50 μM 2-mercaptoethanol (Sigma-Aldrich) at 37° C. in a humidified incubator with 5% CO2. After cytokine-independent proliferation, BCR-ABL1 transformed ITGA6fl/fl cells were transduced retrovirally with EmptyERT2 or CreERT2. […] D-Luciferin (Promega) dissolved in PBS was injected intraperitoneally at a dose of 2.5 mg per mouse 15 minutes before measuring the luminescence signal. […] Mice were monitored for weight loss and other leukemia symptoms. Moribund mice were sacrificed and tissues were analyzed for leukemia cell infiltration to confirm leukemia as the cause of death.
To determine the effect of VLA6 deletion on leukemia progression in vivo, ITGA6 competent ITGA6fl/fl BCR/ABL1+ pre-B (B220+CD19+) CreERT2+ or control transduced ALL cells were lentivirally luciferase labeled and transferred into NOD/SCID mice (FIG. 6A). […] For this purpose, splenic cells and bone marrow cells of leukemia recipient animals were isolated and analyzed for BCR-ABL1 mRNA expression by RT-PCR (FIG. 6E) and BCR-ABL1 expression in genomic DNA by PCR (FIG. 6F).

Cc1cn(-c2cc(NC(=O)c3ccc(C)c(Nc4nccc(-c5cccnc5)n4)c3)cc(C(F)(F)F)c2)cn1 [Nilotinib]
viability at 0.02 µM ([1]; read-out: Viability of leukemia cells, CreERT2 (ITGA6 deleted)): 10.2%
viability at 0.02 µM ([1]; read-out: Viability of leukemia cells, EmptyERT2 (ITGA6 competent)): 83.7%
Median survival time (MST), CreERT2 (ITGA6 deleted) leukemia ([2]; n=5, Tamoxifen-induced in vivo deletion): survived; also recorded: undefined
Median survival time (MST), EmptyERT2 (ITGA6 competent) leukemia ([2]; n=6, days post-leukemia injection): 39.5 days

— US20160280789A1, “METHODS FOR TREATING HEMATOLOGICAL MALIGNANCIES” (CHILDREN'S HOSPITAL LOS ANGELES, priority 2013, published 2016)
